Laboratory results reported in article PMC5719359 (Scientific Reports, 2017).
pIC50: −log10 of the molar value.

Target: T1, tubulin (Sus scrofa, UniProt P02550+P02554)
T1 construct: purified porcine tubulin; with alpha-tubulin (alpha/beta heterodimer)
Assay: fluorescence colchicine competition assay; the IC50 is from the in vitro tubulin polymerization assay
Format: biochemical

pIC50: 5.69
Compound: COc1cc(OC)cc(N2CCN(C(=O)c3n[nH]nc3-c3ccccc3Cl)CC2)c1 [7p]
